# From publication PMC8286840, “Identifying SARS-CoV-2 antiviral compounds by screening for small molecule inhibitors of Nsp3 papain-like protease” (Biochemical Journal, 2021)
# Where a name gives a salt, the structure may show the parent alone. Read-outs that look alike come from different tables or passages of the source. Where a SMILES comes first, the peptide text is derived from it. Bridges are numbered along the chain shown (N, C = ends). [ ]: non-standard residue; d: D form. The star is where a group is joined. NMePhe(4-NMe2) = CN[C@@H](Cc1ccc(N(C)C)cc1)C(=O)O; Pip(4-oxo) = O=C1CCN[C@H](C(=O)O)C1; Picolinoyl(3-OH) = O=C(c1ncccc1O)*; Phg = N[C@H](C(=O)O)c1ccccc1; dAbu = CC[C@@H](N)C(=O)O
# What was measured:
# [1] = biological target: T1, SARS-CoV-2 PLpro (nsp3 1564–1878) (Severe acute respiratory syndrome coronavirus 2, UniProt P0DTD1); experiment: biochemical; set-up: FRET-quenched peptide (Pro3) cleavage by PLpro, 10 min pre-incubation, slope over 20 min, normalised to no-compound control; details: high concentration screen, read-out: % of control remaining
# [2] = biological target: T1, SARS-CoV-2 PLpro (nsp3 1564–1878); experiment: biochemical; set-up: FRET-quenched peptide (Pro3) cleavage by PLpro, 10 min pre-incubation, slope over 20 min, normalised to no-compound control; details: low concentration screen, read-out: % of control remaining
smiles,measurement,setting,value
"Cc1cc(I)ccc1Nc1c(C(=O)NOCC2CC2)cc(F)c(F)c1F [PD 198306 - N-(Cyclopropylmethoxy)-3,4,5-trifluoro-2-[(4-iodo-2-methylphenyl)amino]-benzamide]",remaining activity at 3.75 µM,[1]; Well no.=2582,87.7%
same,remaining activity at 1.25 µM,[2]; Well no.=2582,92.1%
COc1ccc(COc2cc3oc(=O)c4cc(C(C)O)ccc4c3cc2OC)cc1 (centres unmarked) [Palomid 529],remaining activity at 3.75 µM,[1]; Well no.=4860,98.2%
same,remaining activity at 1.25 µM,[2]; Well no.=4860,102%
O=C(/C=C/c1cccnc1)NCCCCC1CCN(C(=O)c2ccccc2)CC1 [APO866 (FK866)],remaining activity at 3.75 µM,[1]; Well no.=5123,94.7%
same,remaining activity at 1.25 µM,[2]; Well no.=5123,99%
COc1ccc([C@@H]2CC(=O)c3c(O)cc(O[C@@H]4O[C@H](CO[C@@H]5O[C@@H](C)[C@H](O)[C@@H](O)[C@H]5O)[C@@H](O)[C@H](O)[C@H]4O)cc3O2)cc1OC [Methyl-Hesperidin],remaining activity at 3.75 µM,[1]; Well no.=4864,99.3%
same,remaining activity at 1.25 µM,[2]; Well no.=4864,98.4%
Cc1ccc(-c2c(-c3nn(C)c4ncnc(N5CC[C@H](N6CCCCC6)C5)c34)cnn2C)cc1 [PF-4981517],remaining activity at 3.75 µM,[1]; Well no.=4875,93.8%
same,remaining activity at 1.25 µM,[2]; Well no.=4875,99.5%
Cc1c2ccncc2c(C)c2c1[nH]c1ccccc12 [Ellipticine],remaining activity at 3.75 µM,[1]; Well no.=651,91.7%
same,remaining activity at 3.75 µM,[1]; Well no.=3271,98%
same,remaining activity at 1.25 µM,[2]; Well no.=651,95.5%
same,remaining activity at 1.25 µM,[2]; Well no.=3271,102%
COc1cc(Nc2ncc(F)c(Nc3ccc4c(n3)NC(=O)C(C)(C)O4)n2)cc(OC)c1OC [R406 (free base)],remaining activity at 3.75 µM,[1]; Well no.=4951,102%
same,remaining activity at 1.25 µM,[2]; Well no.=4951,102%
COc1cc(C(O)C(=O)O)ccc1O (racemic),remaining activity at 3.75 µM,[1]; Well no.=606,97.2%
same,remaining activity at 1.25 µM,[2]; Well no.=606,96%
O=C(Nc1ccc(S(=O)(=O)Nc2ccccc2Cl)c(Cl)c1)c1ccccn1 [VU 0364439],remaining activity at 3.75 µM,[1]; Well no.=4978,96.2%
same,remaining activity at 1.25 µM,[2]; Well no.=4978,96.2%
O=C(O)c1ccc2c3c1cccc3c(=O)n1c3ccccc3nc21 [STO-609],remaining activity at 3.75 µM,[1]; Well no.=2658,89.5%
same,remaining activity at 1.25 µM,[2]; Well no.=2658,90%
COc1c2ccoc2cc2oc(C)cc(=O)c12 [Visnagin],remaining activity at 3.75 µM,[1]; Well no.=3689,101%
same,remaining activity at 1.25 µM,[2]; Well no.=3689,99.6%
COc1cc2nc(N3CCN(C(=O)C4CCCO4)CC3)nc(N)c2cc1OC (centres unmarked) [Terazosin (hydrochloride dihydrate)],remaining activity at 3.75 µM,[1]; Well no.=7519,84.5%
same,remaining activity at 1.25 µM,[2]; Well no.=7519,98.6%
CC[C@H]1NC(=O)[C@@H](NC(=O)c2ncccc2O)[C@@H](C)OC(=O)[C@H](c2ccccc2)NC(=O)[C@@H]2CC(=O)CCN2C(=O)[C@H](Cc2ccc(N(C)C)cc2)N(C)C(=O)[C@@H]2CCCN2C1=O [Pristinamycin IA] ({Picolinoyl(3-OH)}-T[dAbu]P[NMePhe(4-NMe2)][Pip(4-oxo)][Phg]; ester 1-C),remaining activity at 3.75 µM,[1]; Well no.=7980,96.6%
same,remaining activity at 1.25 µM,[2]; Well no.=7980,96.9%
CC(C)CCC[C@H](C)[C@H]1CC[C@H]2[C@@H]3CCC4=CC(=NO)CC[C@]4(C)[C@H]3CC[C@]12C [(20S)-cholest-4-en-3-one oxime],remaining activity at 3.75 µM,[1]; Well no.=5966,96.1%
same,remaining activity at 1.25 µM,[2]; Well no.=5966,94.3%
O=C(O)COCCN1CCN(C(c2ccccc2)c2ccc(Cl)cc2)CC1 (centres unmarked) [Cetirizine 2HCl],remaining activity at 3.75 µM,[1]; Well no.=1712,98.8%
same,remaining activity at 1.25 µM,[2]; Well no.=1712,96.2%
CN(CCOc1ccc(NS(C)(=O)=O)cc1)CCc1ccc(NS(C)(=O)=O)cc1 [Dofetilide],remaining activity at 3.75 µM,[1]; Well no.=1659,106%
same,remaining activity at 1.25 µM,[2]; Well no.=1659,108%
O=c1cc(-c2ccccc2)oc2cc(O)ccc12 [7-Hydroxyflavone],remaining activity at 3.75 µM,[1]; Well no.=3293,103%
same,remaining activity at 1.25 µM,[2]; Well no.=3293,97.8%
S=c1[nH]cnc2nc[nH]c12 [Mercaptopurine],remaining activity at 3.75 µM,[1]; Well no.=4771,105%
same,remaining activity at 1.25 µM,[2]; Well no.=4771,104%
Cc1ccc(C(=O)Nc2ccc(S(=O)(=O)O)c3cc(S(=O)(=O)O)cc(S(=O)(=O)O)c23)cc1NC(=O)c1cccc(NC(=O)Nc2cccc(C(=O)Nc3cc(C(=O)Nc4ccc(S(=O)(=O)O)c5cc(S(=O)(=O)O)cc(S(=O)(=O)O)c45)ccc3C)c2)c1 [Suramin],remaining activity at 3.75 µM,[1]; Well no.=1622,96.7%
same,remaining activity at 1.25 µM,[2]; Well no.=1622,99.2%
CN1CCC(S(=O)(=O)c2c(Cl)ccc(NC(=O)Nc3cccc(F)c3Cl)c2O)CC1 [CXCR2-IN-1],remaining activity at 3.75 µM,[1]; Well no.=8705,98.8%
same,remaining activity at 1.25 µM,[2]; Well no.=8705,100%
CN(C)CC#Cc1ccc(OCCCc2sc(N3CCc4cccc(C(=O)Nc5nc6ccccc6s5)c4C3)nc2C(=O)O)c(F)c1 [A-1155463],remaining activity at 3.75 µM,[1]; Well no.=6344,97.3%
same,remaining activity at 1.25 µM,[2]; Well no.=6344,96.3%
C#C[C@]1(O)CC[C@H]2[C@@H]3CCc4cc(O)ccc4[C@H]3CC[C@@]21C [Ethinyl Estradiol],remaining activity at 3.75 µM,[1]; Well no.=5333,98.6%
same,remaining activity at 1.25 µM,[2]; Well no.=5333,98.9%
COc1ccc(/C=C\c2cc(OC)c(OC)c(OC)c2)cc1O [Combretastatin A4],remaining activity at 3.75 µM,[1]; Well no.=5540,102%
same,remaining activity at 1.25 µM,[2]; Well no.=5540,101%
O=C(O)CCC/C=C\C[C@@H]1[C@H](CNNC(=O)Nc2ccccc2)[C@H]2CC[C@@H]1O2 [SQ-29548],remaining activity at 3.75 µM,[1]; Well no.=4526,94.8%
same,remaining activity at 1.25 µM,[2]; Well no.=4526,92.8%
Clc1ccc(C2(c3ccc(-c4cn[nH]c4)cc3)CCNCC2)cc1 [AT7867],remaining activity at 3.75 µM,[1]; Well no.=5295,96.7%
same,remaining activity at 1.25 µM,[2]; Well no.=5295,95.9%
O[C@H]1[C@H](O)[C@@H](O)CN2CC[C@H](O)[C@H]12 [Castanospermine],remaining activity at 3.75 µM,[1]; Well no.=3135,102%
same,remaining activity at 1.25 µM,[2]; Well no.=3135,102%
CC(C)(C)C(=O)C(=Nc1ccc(Cl)cc1)NNc1ccc(Cl)cc1 [TY-52156],remaining activity at 3.75 µM,[1]; Well no.=7819,104%
same,remaining activity at 1.25 µM,[2]; Well no.=7819,105%
C[C@H](O)C(=O)O [L-Lactic acid],remaining activity at 3.75 µM,[1]; Well no.=7395,106%
same,remaining activity at 1.25 µM,[2]; Well no.=7395,104%
FC(F)c1nc2ccccc2n1-c1nc(N2CCOCC2)nc(N2CCOCC2)n1 [ZSTK474],remaining activity at 3.75 µM,[1]; Well no.=4623,106%
same,remaining activity at 1.25 µM,[2]; Well no.=4623,102%
COc1ccc2[nH]c([S+]([O-])Cc3ncc(C)c(OC)c3C)nc2n1 (centres unmarked) [Tenatoprazole],remaining activity at 3.75 µM,[1]; Well no.=1950,95.8%
same,remaining activity at 1.25 µM,[2]; Well no.=1950,98.5%
Cc1cc(NS(=O)(=O)c2ccc(N)cc2)no1 [Sulfamethoxazole],remaining activity at 3.75 µM,[1]; Well no.=4662,98.1%
same,remaining activity at 3.75 µM,[1]; Well no.=7398,107%
same,remaining activity at 1.25 µM,[2]; Well no.=4662,102%
O=C1CCC(N2C(=O)c3ccccc3C2=O)C(=O)N1 (centres unmarked) [Thalidomide],remaining activity at 3.75 µM,[1]; Well no.=2261,102%
same,remaining activity at 1.25 µM,[2]; Well no.=2261,98.2%
CNC1(C)C2CCC(C2)C1(C)C (centres unmarked) [Mecamylamine hydrochloride],remaining activity at 3.75 µM,[1]; Well no.=987,99.8%
same,remaining activity at 1.25 µM,[2]; Well no.=987,98.1%
CN(C)[C@@H](CCOc1cccc2ccccc12)c1ccccc1 [Dapoxetine hydrochloride],remaining activity at 3.75 µM,[1]; Well no.=5853,91%
same,remaining activity at 1.25 µM,[2]; Well no.=5853,94.2%
